# Test results from patent US20240336889A1, “NOMADIC BACTERIA AND USES THEREOF” (The State of Israel, Ministry of Agriculture & Rural …, priority 2021, published 2024).
# What was measured:
# [1] = test system: C. albicans; assay: C. albicans biofilm inhibition assay (crystal violet); assay type: cell-based; details: for effect of pure ketone on C. albicans biofilms: dose not stated
# Description: (§1) Biofilm inhibition assay: Biofilm inhibition assays were conducted in 96-well polystyrene microtiter plates (Tarsons Products Pvt. Ltd. India) as previously described. Briefly, bacterial or yeast cells were cultured overnight in LB or PDB and re-inoculated in fresh LB or PDB (1:100 dilution) (with 0.05% glucose) with and without supplementation of postbiotics (5% or 10% v/v) at 37° C. After 24 h of incubation, biofilms were stained with crystal violet (0.1%) for 20 min, washed repeatedly, and the residual biofilm cells (attached to the polystyrene surfaces) were dissolved in 95% ethanol. The planktonic growth was measured at 600 nm, while the biofilms were measured at 575 nm using a Biowave CO8000 cell density meter. For microscopic imaging of biofilms attached to the polystyrene surfaces, the wells were stained with SYTO® 9 dye, and imaged under Nikon fluorescent microscope (Nikon Eclipse Ti2, Japan) using a GFP emission filter.
# [2] = test system: C. albicans; assay: Yeast-hyphae switching assay; assay type: cell-based; details: liquid RPMI media
# Description: Yeast-hyphae switching assay: Yeast-hyphae (Y-H) switching assays were conducted in liquid RPMI-1640 medium as previously described. Briefly, overnights cultures of C. albicans (grown in PDB) were diluted to a 1:100 in RPMI-1640 and treated with or without UP/CSP ([…]) or ketones (0.005%-0.1%). The cultures were then incubated at 37° C. with shaking (150 rpm). Following incubation, 5 μL of the cultures were transferred to the microscopic slide and imaged under Nikon fluorescent microscope (Nikon Eclipse Ti2, Japan).
# [3] = test system: C. albicans; assay: C. albicans growth profile; assay type: cell-based
# Description: as §1, with “Briefly, bacterial or yeast cells were cultured overnight in LB or PDB and re-inoculated in fresh LB or PDB (1:100 dilution) (with 0.05% glucose) with and without supplementation of postbiotics (5% or 10% v/v) at 37° C.” left out
# [4] = test system: C. elegans; assay: C. elegans toxicity assay; assay type: in vivo; details: 2-undecanone 0.1%, 7 days
# Description: C. elegans toxicity assay: C. elegans wild-type strains were maintained on nematode growth medium (NGM) with E. coli OP50 as the feed. […] The control and treatment groups (each consisting of approximately 30 nematodes per well) were suspended in liquid M9 buffer and monitored for 7 days. The live or dead nematodes were counted using the Nikon fluorescent microscope (Nikon Eclipse Ti2, Japan) using a DIC and DAPi (blue LED light) filters and the survival percentage was calculated.
# [5] = test system: C. albicans; assay: C. elegans infected with C. albicans, treated with 2-undecanone; assay type: in vivo; details: 2-undecanone 0.01%, 7 days; infected untreated 20% survival
# Description: C. elegans co-infection assays: Wild-type C. elegans were maintained on nematode growth medium (NGM) with E. coli OP50 as the feed, and synchronization was performed as described previously^35. Briefly, C. elegans were collected by aspiration and bleached with 2% sodium hypochlorite and 0.5 N sodium hydroxide to get the eggs. Eggs were transferred to 48-well microliter plates and were incubated for 24 h at 22° C. for hatching. The hatched juveniles were transferred to new E. coli OP50 plates and incubated for 5-7 days to obtain adult nematode. Adults were subsequently used for toxicity, and bacterial or C. albicans colonization assays. For C. albicans infection of C. elegans, the adult nematodes, previously fed on E. coli OP50, were transferred to a C. albicans lawn on NGM agar plate for 4 h. After 4 h, the nematodes were collected in M9 buffer, pipetted into a 96-well, and survival monitored for 7 days. […] The live and dead nematodes were counted under bright-field, and DAPi filter and the nematode survival rates were estimated and plotted. The images of C. elegans were acquired using a Nikon fluorescent microscope (Nikon Eclipse Ti2, Japan).
# The present inventors further tested whether 2-undecanone could suppress C. albicans pathogenicity in a C. elegans model by infecting C. elegans with C. albicans.
# [6] = test system: unstressed L. plantarum 3297 cells from conic colonies; assay: Cold-shock colony filtrate assay: consolidated circular bundle formation in unstressed conic colony cells; assay type: cell-based; details: cells pre-incubated with lithium chloride (5M) before CSCF
# Description: An assay was developed to see if the cold-stressed conic colony (−17° C. for 1 h) extracts could potentiate consolidated bundling in unstressed conic colony cells. Briefly, 1 mL of suspension from harvested cold-stressed (treated) and unstressed (control) conic colonies (approximately 5-6 colonies) were resuspended in PBS, vortexed, and sonicated. The extracts were filtered using a 0.2 μm membrane filter to remove the cells. The filtrate was named cold-shock colony filtrates (CSCF). Simultaneously, 1 mL cells from the unstressed colonies were vortexed, sonicated, and pelleted. To these pelleted unstressed cells, 1 mL of CSCF was added, aspirated, and incubated at 37° C. for 3 h. At the same time, colony filtrates (CF) from the unstressed colony and heat-treated (60° C. for 30 min) CSCF were prepared and tested. Following incubation, the aggregation pattern was scrutinized under Nikon fluorescent microscope (Nikon Eclipse Ti2, Japan). As a negative control, one vial of unstressed cells was incubated with 5M lithium chloride ([…]) for 30 min before adding 1 mL of CSCF. […] abolishes the S-layer protein and stalls the ability of the cells to aggregate to form bundles.
smiles,measurement,setting,value
CCCCCC(C)=O [2-heptanone],effect of pure ketone on C. albicans biofilms,[1],did not show any notable effect
same,effect of pure ketone on C. albicans hyphae (Y-H transitions),[2],did not show any notable effect
CCCCCCCC(C)=O [2-nonanone],effect of pure ketone on C. albicans biofilms,[1],did not show any notable effect
same,effect of pure ketone on C. albicans hyphae (Y-H transitions),[2],did not show any notable effect
CCCCCCCCCC(C)=O [2-undecanone],C. albicans planktonic growth,[3]; 0.005%,without compromising the planktonic growth
same,C. albicans growth profiles,"[3]; higher dosage (0.05 or 0.01%), RPMI media",substantial decline in the growth profiles
same,mortality of C. elegans,[4],did not induce any mortality
same,C. albicans biofilm formation,"[1]; 0.005%, PDB, polystyrene",successful in preventing the biofilm formation
same,effect of pure ketone on C. albicans hyphae (Y-H transitions),[2],effectively controlled Y-H transitions
same,survivability of C. albicans infected C. elegans,[5],50%
[Cl-].[Li+] [lithium chloride],circular bundle formation induced by CSCF,[6],prevented
